Legend:
Experiment in all cases: relative viability (nuclei count vs DMSO), 5 days (fraction); higher = more cells survive
Erlotinib + Trametinib = compound: C#Cc1cccc(Nc2ncnc3cc(OCCOC)c(OCCOC)cc23)c1 [Erlotinib] + CC(=O)Nc1cccc(-n2c(=O)n(C3CC3)c(=O)c3c(Nc4ccc(I)cc4F)n(C)c(=O)c(C)c32)c1 [Trametinib] (partner 0.02 µM)
In short: (§1)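 Relative viability is defined as nuclei in treated wells over nuclei in vehicle wells. Duplicate plates were run and medians reported. Lung cancer cell lines in 1536-well plates were dosed by pin tool one day after seeding, with one drug or with a fixed anchor-drug dose plus five library-drug doses (not always all listed) in √10 steps, and nuclei were counted after 5 days.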

Erlotinib + Bortezomib = compound: C#Cc1cccc(Nc2ncnc3cc(OCCOC)c(OCCOC)cc23)c1 [Erlotinib] + CC(C)C[C@H](NC(=O)[C@H](Cc1ccccc1)NC(=O)c1cnccn1)B(O)O [Bortezomib] (partner 0.002 µM)
In short: as §1

Erlotinib + Dasatinib = compound: C#Cc1cccc(Nc2ncnc3cc(OCCOC)c(OCCOC)cc23)c1 [Erlotinib] + Cc1nc(Nc2ncc(C(=O)Nc3c(C)cccc3Cl)s2)cc(N2CCN(CCO)CC2)n1 [Dasatinib] (partner 0.075 µM)
In short: as §1

Erlotinib + Olaparib = compound: C#Cc1cccc(Nc2ncnc3cc(OCCOC)c(OCCOC)cc23)c1 [Erlotinib] + O=C(c1cc(Cc2n[nH]c(=O)c3ccccc23)ccc1F)N1CCN(C(=O)C2CC2)CC1 [Olaparib] (partner 8 µM)
In short: as §1

AT9283 + OSI-027 = compound: O=C(Nc1c[nH]nc1-c1nc2ccc(CN3CCOCC3)cc2[nH]1)NC1CC1 [AT9283] + COc1cccc2cc(-c3nc([C@H]4CC[C@H](C(=O)O)CC4)n4ncnc(N)c34)[nH]c12 [OSI-027] (partner 0.5 µM)
In short: as §1

Cell Line	relative viability (Erlotinib + Trametinib; first compound 0.02 µM)	relative viability (Erlotinib + Trametinib; first compound 0.2 µM)	relative viability (Erlotinib + Trametinib; first compound 0.6325 µM)	relative viability (Erlotinib + Trametinib; first compound 2 µM)	relative viability (Erlotinib + Bortezomib; first compound 0.02 µM)	relative viability (Erlotinib + Bortezomib; first compound 0.2 µM)	relative viability (Erlotinib + Bortezomib; first compound 0.6325 µM)	relative viability (Erlotinib + Bortezomib; first compound 2 µM)	relative viability (Erlotinib + Dasatinib; first compound 0.02 µM)	relative viability (Erlotinib + Dasatinib; first compound 0.2 µM)	relative viability (Erlotinib + Dasatinib; first compound 0.6325 µM)	relative viability (Erlotinib + Dasatinib; first compound 2 µM)	relative viability (Erlotinib + Olaparib; first compound 0.02 µM)	relative viability (Erlotinib + Olaparib; first compound 0.2 µM)	relative viability (Erlotinib + Olaparib; first compound 0.6325 µM)	relative viability (Erlotinib + Olaparib; first compound 2 µM)	relative viability (AT9283 + OSI-027; first compound 0.003 µM)	relative viability (AT9283 + OSI-027; first compound 0.03 µM)	relative viability (AT9283 + OSI-027; first compound 0.09487 µM)	relative viability (AT9283 + OSI-027; first compound 0.3 µM)
HCC-15	0.394	0.344	0.339	0.347	1.01	1.12	1.12	0.969	0.66	0.612	0.605	0.533	0.701	0.753	0.715	0.626	0.61	0.412	0.153	0.157
HCC-78	0.768	0.524	0.683	0.58	0.452	0.333	0.496	0.302	0.319	0.36	0.364	0.225	0.877	0.634	–	0.728	0.519	0.304	0.271	0.276
NCI-H2170	0.884	0.924	0.977	0.773	–	–	–	–	0.554	0.548	0.434	0.272	0.651	0.602	0.476	0.309	0.663	0.607	0.298	0.172
NCI-H23	0.36	0.349	0.385	0.306	0.915	–	1.32	0.917	0.876	–	0.928	0.698	0.388	0.261	0.289	0.294	0.666	0.674	0.344	0.281
NCI-H838	0.587	0.431	0.586	0.509	0.8	0.491	1.18	0.694	0.29	0.308	0.288	0.317	0.823	0.766	0.859	0.726	0.471	0.496	0.178	0.195
NCI-H522	0.665	0.697	0.705	0.676	–	–	–	–	0.812	0.784	1.06	0.85	0.614	0.553	0.61	0.422	0.665	0.57	0.549	0.567
NCI-H1650	0.477	0.443	0.561	0.382	0.204	0.204	0.176	0.178	0.283	0.265	0.282	0.325	0.821	0.685	0.61	0.644	0.838	0.575	0.357	0.227
EMC-BAC-2	–	0.765	0.901	0.739	1.09	0.972	1.05	–	0.33	0.314	0.337	0.342	0.569	0.547	0.492	0.46	0.369	0.325	0.197	0.149
NCI-H1563	–	–	–	–	0.905	0.787	0.75	0.754	0.38	0.522	0.427	0.382	–	–	–	–	0.769	0.748	0.645	0.525
HCC-366	0.335	0.294	0.277	0.215	–	1.08	1.1	1.06	0.61	0.606	0.637	0.522	0.331	0.359	0.353	0.242	0.834	0.845	0.048	0.0995
SW 1573	0.568	0.557	0.526	0.474	1.08	1.02	0.934	0.879	0.764	–	0.463	0.41	0.502	0.494	0.558	0.364	0.534	0.352	0.146	0.134
LOU-NH91	0.759	0.57	0.739	0.644	0.525	0.497	0.484	0.458	0.459	0.434	0.415	0.365	0.733	0.619	0.725	0.624	0.697	0.698	0.599	0.388
NCI-H1299	–	–	–	–	1.11	1.05	0.997	1	–	–	–	–	0.988	1.01	0.959	1	–	–	–	–
HCC-44	1.07	1.01	1.1	0.981	0.99	–	0.982	0.899	–	–	–	–	0.94	0.984	1.05	0.947	0.466	0.555	0.185	0.21
NCI-H1437	0.534	0.322	0.373	0.371	0.482	0.499	0.57	0.393	0.357	0.433	0.46	0.339	0.638	0.646	0.607	0.612	0.933	0.848	0.669	0.206
H3255	0.632	0.412	0.326	0.214	0.99	0.758	0.244	0.179	0.322	0.347	0.167	0.278	0.661	0.469	0.387	0.242	0.683	0.659	0.548	0.306
Calu-6	–	–	–	–	0.992	1.02	1.04	0.933	–	–	–	–	0.602	0.546	0.552	0.519	–	–	–	–
NCI-H2085	0.494	0.496	0.513	0.306	1.04	0.979	0.889	0.766	0.235	0.2	0.266	0.249	0.754	0.768	0.655	0.619	0.896	0.731	0.553	0.321
